Laboratory results taken from ChEMBL document CHEMBL2440091, “The enzyme 3-hydroxykynurenine transaminase as potential target for 1,2,4-oxadiazoles with larvicide activity against the dengue vector Aedes aegypti” (2013).
≈ marks a conversion by molar mass, not a printed value. Calls of active or inactive are those of the source. The calls are words filed in the database; no cut-off is given here.

test system: Aedes aegypti; assay: Larvicidal activity against fourth instar larvae of Aedes aegypti assessed as mortality after 48 hrs; format: functional

Structure (SMILES)	LC50 [µg/mL]
O=C(O)CCCc1nc(-c2ccc3c(c2)OCO3)no1	72.9 (≈ 264 µM)
O=C(O)Cc1nc(-c2ccccc2)no1	> 100
O=C(O)CCCc1nc(-c2ccccc2)no1	92.7 (≈ 399 µM)
Cc1ccc(-c2noc(CCC(=O)O)n2)cc1	65.8 (≈ 283 µM)
O=C(O)CCCc1nc(-c2ccc(Br)cc2)no1	10.6 (≈ 34.1 µM)
Cc1ccc(-c2noc(CC(=O)O)n2)cc1	92.3 (≈ 423 µM)
O=C(O)CCc1nc(-c2ccc(Br)cc2)no1	15.2 (≈ 51.2 µM)
O=C(O)CCc1nc(-c2ccccc2)no1	98.6 (≈ 452 µM)
COC(=O)CCc1nc(-c2ccccc2)no1	30.6 (≈ 132 µM)
Cc1cccc(-c2noc(CCCC(=O)O)n2)c1	75.9 (≈ 308 µM)
O=C(O)CCCc1nc(-c2ccc(I)cc2)no1	16.2 (≈ 45.2 µM)
O=C(O)CCc1cc(-c2ccccc2)no1	82.8 (≈ 381 µM)
O=C(O)CCc1nc(-c2ccc(Cl)cc2)no1	28.1 (≈ 111 µM)
O=C(O)CCc1nc(-c2ccc([N+](=O)[O-])cc2)no1	50.5 (≈ 192 µM)
O=C(O)CCCc1nc(-c2ccc(Cl)cc2)no1	34.9 (≈ 131 µM)
COc1ccc(-c2noc(CCC(=O)O)n2)cc1	71.5 (≈ 288 µM)
COC(=O)CCCc1nc(-c2ccc(Cl)c(Cl)c2)no1	6.8 (≈ 21.6 µM)
OCCCc1cc(-c2ccccc2)no1	> 100
O=C(O)Cc1nc(-c2ccc(Cl)cc2)no1	49.3 (≈ 207 µM)
O=C(O)Cc1nc(-c2ccc(Br)cc2)no1	67.9 (≈ 240 µM)
Cc1ccccc1-c1noc(CCC(=O)O)n1	70.9 (≈ 305 µM)
O=C(O)CCc1nc(-c2ccc(F)cc2)no1	81.2 (≈ 344 µM)
CC(=O)CCc1nc(-c2ccccc2)no1	> 100
COC(=O)CCCc1nc(-c2ccccc2)no1	59.9 (≈ 243 µM)
COC(=O)CCc1cc(-c2ccccc2)no1	13.2 (≈ 57.1 µM)
Cc1cccc(-c2noc(CCC(=O)O)n2)c1	63.8 (≈ 275 µM)
COc1ccc(-c2noc(CCCC(=O)O)n2)cc1	> 100

test system: Aedes aegypti; assay: Larvicidal activity against fourth instar larvae of Aedes aegypti assessed as induction of alterations in pigmentation pattern at 100 ppm after 24 hrs by microscopic analysis; format: functional, organism-based

Structure (SMILES)	Activity
O=C(O)CCc1nc(-c2ccc(Br)cc2)no1	Active
O=C(O)CCc1cc(-c2ccccc2)no1	Active
COC(=O)CCc1cc(-c2ccccc2)no1	Active
